# Measured values: patent publication EP2677026A1, “Keratinocyte minimal growth medium and use thereof in an in vitro method for identifying compounds capable of improving skin and hair physiology” (Merz Pharma GmbH & Co. KGaA, priority 2012, dated 2013)
# Like-named read-outs stand apart in the source and are kept apart here.
# Key:
# [1] = test system: NHEK (normal human epidermal keratinocytes); experiment: Minimal growth assay: proliferation by DNA amount (CyQuant Direct Cell Proliferation Assay kit) of NHEK in MGM plus test compounds; format: cell-based; settings: NHEK in MGM plus single compound or combination; MGM control set 100%
# Procedure: Alternatively, cell number was directly assessed by measuring the amount of DNA using the CyQuant® Direct Cell Proliferation Assay kit (Invitrogen). In brief, the two CyQuant® kit solutions were mixed and added to the respective culture medium as described by the supplier. The fluorescence of the DNA intercalating CyQuant® Dye, representing the amount of cells, was recorded at 480Ex/535Em nm using a Synergy™ H4 plate reader (BioTek Instruments). Increase of the number of cells is used as indirect indicator of cell proliferation.
# Mean values of relative fluorescence/luminescence units (RFU/RLU) and standard deviation of replicates were analysed by Gene5 software. For a better estimation of test compound's potential metabolic activity and proliferation measured in MGM were set as 100%. Statistical significance was assessed by comparing mean (+/-SD) values with Student's t-test for independent groups.
# For measurements of metabolic activity and proliferation, NHEK were seeded at 30,000 cells/cm^2 into a 48-well microtiter flat bottom plate. After over night incubation growth medium 2 was replaced by BM, MGM, and MGM plus test compounds. The test compounds were dissolved in DMSO, diluted into MGM and added to the cells. 4 to 6 replicates/concentration were tested. […]
# [2] = test system: NHEK (normal human epidermal keratinocytes); experiment: Minimal growth assay: metabolic activity by resazurin assay of NHEK cultivated in minimal growth medium (MGM) plus test compound; format: cell-based; settings: for metabolic activity/cell number compared to the MGM control: highest value of the dose-dependent increase; for dose-depending increase of metabolic activity/cell number compared to the MGM control: 48 h and 72 h, increasing concentrations in MGM; for activity at 100 µM: 100 µm test compound
# Procedure: Metabolic activity was measured by a resazurin assay. In this assay, non-fluorescent resazurin is reduced to fluorescent resorufin in viable cells only. The resulting signal is proportional to the number of cells present and, thus, is an indirect measure of cell number. The assay was carried out by diluting a resazurin (Sigma) stock solution (0,1 mg/ml in PBS) in the respective culture medium at a ratio of 1:11. The resazurin conversion to the fluorescent resorufin by metabolically active cells was recorded at 560Ex/590Em nm using a Synergy™ H4 plate reader (BioTek Instruments). Mean values of relative fluorescence/luminescence units (RFU/RLU) and standard deviation of replicates were analysed by Gene5 software. […] Statistical significance was assessed by comparing mean (+/-SD) values with Student's t-test for independent groups. NHEK were seeded at 30.000 cells/cm^2 into 48-well flat bottom tissue culture plates and cultured in normal keratinocyte growth medium ("GM") at 37°C and 5% CO2. After 12 to 15 h (typically over night) the media was exchanged to MGM with different concentrations of test compound. Controls receive MGM without compounds. Test compounds 1 to 4 (1: […] Ca^2+-pantothenate; 4: folic acid) were prepared according to Table 1 to yield respective stock solutions. The stock solutions were further diluted in minimal growth media (MGM) to obtain different test compound concentrations. […] The negative control wells contained media only plus the respective solvent. Table 1. Test compound and control solutions […] The test compounds were dissolved in DMSO, diluted into MGM and added to the cells. 4 to 6 replicates/concentration were tested. […] Metabolic activity after 48 h (see FIG. 4) and 72 h after incubation (see FIG. 5) was determined by the resazurin assay, and proliferation after 48 h and 72 h after incubation was measured using the CyQuant® Direct Cell Proliferation Assay kit (data not shown).
# [3] = after 48 h, MGM control set 100%
# [4] = after 72 h, MGM control set 100%
# [5] = Homo sapiens, NHEK, after 72 h, MGM control set 100%, read-out: metabolic activity compared to the MGM control
SMILES,proliferation (DNA amount) compared to the MGM control [1],"metabolic activity/cell number compared to the MGM control [2, 3]","metabolic activity/cell number compared to the MGM control [2, 4]",dose-depending increase of metabolic activity/cell number compared to the MGM control [2],"activity at 100 µM ([2]; Homo sapiens, NHEK, after 48 h, MGM control set 100%, read-out: metabolic activity compared to the MGM control)","activity at 100 µM [2, 5]","activity at 5 µM ([2]; Homo sapiens, NHEK, 5 µm test compound, after 48 h, MGM control set 100%, read-out: metabolic activity compared to the MGM control)"
N[C@@H](CSSC[C@H](N)C(=O)O)C(=O)O [L-cystine],282%,up to 265%,up to 419%,,,,
Nc1nc2ncc(CNc3ccc(C(=O)N[C@@H](CCC(=O)O)C(=O)O)cc3)nc2c(=O)[nH]1 [folic acid],,,,did not demonstrate a dose-depending increase,113%,118%,
"Cc1ncc(C[n+]2csc(CCO)c2C)c(N)n1 [Thiamin, thiamine]",,up to 138%,up to 163%,,,,
"CC(C)(CO)[C@@H](O)C(=O)NCCC(=O)O [pantothenate, Ca^2+-pantothenate]",,,,did not show a dose-depending increase,,110%,111%
